Test results: patent US20250041335A1, “PERCARBONATE COMPOSITIONS AND USES THEREOF” (ThermoLife International, LLC, priority 2023, published 2025)

What was measured:
[1] = label language of products on the market; cited from earlier work
human subject = details: person, 2 grams oral, two 000 capsules, just before kayaking
[2] = ingested before exercise, humans
[3] = 2 grams oral, two 000 capsules, immediately before exercise, all subjects, self-described
[4] = subject with diabetes, 2 grams oral, self-described

Which results are given for `O=C([O-])[O-].O=C([O-])[O-].OO.OO.OO.[Na+].[Na+].[Na+].[Na+]` [sodium percarbonate]?
detrimental gastrointestinal effects (nausea, diarrhea) (humans; doses of 2-10 grams in humans, preferably capsule form): did not result in nausea, diarrhea or any other detrimental gastrointestinal effects; endurance (humans; [2]): increased; lactic acid "burn" (humans; [2]): decreased; recovery from exercise (humans; [2]): improved; stimulatory effects like those of caffeine and other stimulants (humans; [2]): did not have any appreciable stimulatory effects; strength (humans; [2]): increased; effects of ingestion per product poisoning warning [1]: may cause bloating, belching, irritation of the mouth and throat, nausea, vomiting, abdominal pain and diarrhea; burning in muscles (human subject): did not feel any burning in their muscles; endurance (human subject): greatly increased; endurance (human subjects; [3]): increased; lactic acid burn (human subjects; [3]): reduced; recovery during and after the session of exercise (human subjects; [3]): improved; strength (human subjects; [3]): increased; leg ache (human subjects; person, 2 grams oral before StairMaster cardio session after leg training, self-described): didn't ache as much as usual; endurance levels (human subjects; person, 2 grams oral before StairMaster cardio session after leg training, without breaking fast): definitely better than normal; breathing (human subjects; [4]): feels good; recovery between sets (human subjects; [4]): quicker; stamina/endurance through back workout and cardio (human subjects; [4]): still feel like I could keep going
